The values below are quoted from earlier work in PubChem BioAssay AID1259409 (Chemical Carcinogenesis Research Information System (CCRIS), 2018).

This data set concerns rodent chemically induced tumor inhibition, incidence and multiplicity. As to the kind of experiment: CCRIS tumor inhibitor studies. Particulars: Promoter: NONE USED.

`CCCCCCCCCCCCCCCC(=O)OC/C=C(C)/C=C/C=C(C)/C=C/C1=C(C)CCCC1(C)C`: the “tumour outcome (control, treated, inhibition, significance)” value by setting is: (Carcinogen: 3-METHYLCHOLANTHRENE, 56-49-5, Dose [Inhibitor]: 6 MG IN 0.1 ML ACETONE STARTING 2 WK AFTER CARCINOGEN TREATMENT AND APPLIED 2/WK DURING WK 3-5 OF THE STUDY AND THEN 1/W, Route [Inhibitor]: DERMAL, Species: MOUSE, Strain/Sex: SWISS/FEMALE, Target Tissue: Type of Lesion: SKIN: CARCINOMA, Dose [Carcinogen]: 0.1 ML OF 0.3% DISSOLVED IN ACETONE APPLIED 2/WK FIRST 5 WK THEN 1/WK FOR WK 6-9 FOLLOWED BY NO FURTHER TREATMENT THROUG) 5/19 (26%), 4/20 (20%), 23%, not calculated; (Carcinogen: 3-METHYLCHOLANTHRENE, 56-49-5, Dose [Inhibitor]: 6 MG IN 0.1 ML ACETONE STARTING 2 WK AFTER CARCINOGEN TREATMENT AND APPLIED 2/WK DURING WK 3-5 OF THE STUDY AND THEN 1/W, Route [Inhibitor]: DERMAL, Species: MOUSE, Strain/Sex: SWISS/FEMALE, Target Tissue: Type of Lesion: SKIN: PAPILLOMA, Dose [Carcinogen]: 0.1 ML OF 0.3% DISSOLVED IN ACETONE APPLIED 2/WK FIRST 5 WK THEN 1/WK FOR WK 6-9 FOLLOWED BY NO FURTHER TREATMENT THROUG) 9/19 (47%), 3/20 (15%), 68%, not calculated; (Carcinogen: 7,12-DIMETHYLBENZ[A]ANTHRACENE, 57-97-6, Dose [Inhibitor]: 0, 5000 IU APPLIED TO EACH CHEEK POUCH 2/WK BEGINNING 15 D POST LAST CARCINOGEN DOSE AND CONTINUING FOR 4.5 MO (STUDY DU, Route [Inhibitor]: DERMAL, Species: HAMSTER, Strain/Sex: SYRIAN/MALE, Target Tissue: Type of Lesion: CHEEK POUCH: TUMOR, Dose [Carcinogen]: 0.125 MG (0.25% LIQUID PARAFFIN SOLUTION) APPLIED TO EACH CHEEK POUCH 2/WK FOR 1 MO) 10/15 (67%), 0/20 (0%), 100%, not calculated; (Carcinogen: 7,12-DIMETHYLBENZ[A]ANTHRACENE, 57-97-6, Dose [Inhibitor]: 0, 5000 IU APPLIED TO EACH CHEEK POUCH 2/WK BEGINNING 15 D POST LAST CARCINOGEN DOSE AND CONTINUING FOR 4.5 MO (STUDY DU, Route [Inhibitor]: DERMAL, Species: HAMSTER, Strain/Sex: SYRIAN/MALE, Target Tissue: Type of Lesion: STOMACH: TUMOR, Dose [Carcinogen]: 0.125 MG (0.25% LIQUID PARAFFIN SOLUTION) APPLIED TO EACH CHEEK POUCH 2/WK FOR 1 MO) 15/15 (100%), 0/20 (0%), 100%, not calculated; (Carcinogen: 7,12-DIMETHYLBENZ[A]ANTHRACENE, 57-97-6, Dose [Inhibitor]: 20000 IU/KG IN DIET BEGINNING 6 WK PRIOR TO CARCINOGEN DOSE AND CONTINUING FOR 21-22 WK POST CARCINOGEN DOSE (STUDY DURA, Route [Inhibitor]: ORAL, Species: RAT, Strain/Sex: SPRAGUE-DAWLEY/MALE, Target Tissue: Type of Lesion: SALIVARY GLAND: TUMOR, Dose [Carcinogen]: 1 MG IN 20 µL OLIVE OIL INJECTED INTO SUBMANDIBULAR GLAND ONCE) 20/28 (71%), 16/29 (55%), 23%, not significant; (Carcinogen: 7,12-DIMETHYLBENZ[A]ANTHRACENE, 57-97-6, Dose [Inhibitor]: 100000 IU/KG IN DIET BEGINNING 6 WK PRIOR TO CARCINOGEN DOSE AND CONTINUING FOR 21-22 WK POST CARCINOGEN DOSE (STUDY DUR, Route [Inhibitor]: ORAL, Species: RAT, Strain/Sex: SPRAGUE-DAWLEY/MALE, Target Tissue: Type of Lesion: SALIVARY GLAND: TUMOR, Dose [Carcinogen]: 1 MG IN 20 µL OLIVE OIL INJECTED INTO SUBMANDIBULAR GLAND ONCE) 20/28 (71%), 17/29 (59%), 17%, not significant. In addition, the “tumour outcome (control, treated, inhibition, significance)” value reads like this: (Carcinogen: BENZO[A]PYRENE, 50-32-8, Dose [Inhibitor]: 50, 200 IU/D IN DRINKING WATER FOR 61 WK BEGINNING POST CARCINOGEN TREATMENT (STUDY DURATION: 66 WK), Route [Inhibitor]: ORAL, Species: MOUSE, Strain/Sex: ICR/MALE, Target Tissue: Type of Lesion: FORESTOMACH: CARCINOMA, Dose [Carcinogen]: 20 MG IN 0.2 ML CORN OIL 2/WK FOR 5 WK) 8/28 (29%), 5/26 (19%), 34%, not significant; (Carcinogen: BENZO[A]PYRENE, 50-32-8, Dose [Inhibitor]: 50, 200 IU/D IN DRINKING WATER FOR 61 WK BEGINNING POST CARCINOGEN TREATMENT (STUDY DURATION: 66 WK), Route [Inhibitor]: ORAL, Species: MOUSE, Strain/Sex: ICR/MALE, Target Tissue: Type of Lesion: FORESTOMACH: PAPILLOMA, Dose [Carcinogen]: 2 MG IN 0.2 ML CORN OIL 2/WK FOR 5 WK) 8/28 (29%), 2/27 (7%), 76%, p<0.05; (Carcinogen: BENZO[A]PYRENE, 50-32-8, Dose [Inhibitor]: 50, 200 IU/D IN DRINKING WATER FOR 61 WK BEGINNING POST CARCINOGEN TREATMENT (STUDY DURATION: 66 WK), Route [Inhibitor]: ORAL, Species: MOUSE, Strain/Sex: ORAL, Target Tissue: Type of Lesion: FORESTOMACH: PAPILLOMA, Dose [Carcinogen]: 20 MG IN O.2 ML CORN OIL 2/WK FOR 5 WK) 26/28 (93%), 23/26 (88%), 5%, not significant; (Carcinogen: BENZO[A]PYRENE, 50-32-8, Dose [Inhibitor]: 50, 200 IU/D IN DRINKING WATER FOR DURATION OF STUDY (STUDY DURATION: 66 WK), Route [Inhibitor]: ORAL, Species: MOUSE, Strain/Sex: ICR/MALE, Target Tissue: Type of Lesion: FORESTOMACH: PAPILLOMA, Dose [Carcinogen]: 2 MG IN 0.2 ML CORN OIL 2/WK FOR 5 WK) 8/28 (29%), 2/27 (7%), 76%, p,0.05; (Carcinogen: BENZO[A]PYRENE, 50-32-8, Dose [Inhibitor]: 50, 200 IU/D IN DRINKING WATER FOR THE DURATION OF STUDY (STUDY DURATION: 66 WK), Route [Inhibitor]: ORAL, Species: MOUSE, Strain/Sex: ICR/MALE, Target Tissue: Type of Lesion: FORESTOMACH: CARCINOMA, Dose [Carcinogen]: 20 MG IN 0.2 ML CORN OIL 2/WK FOR 5 WK) 8/28 (29%), 7/27 (26%), 10%, not significant; (Carcinogen: BENZO[A]PYRENE, 50-32-8, Dose [Inhibitor]: 50, 200 IU/D IN DRINKING WATER FOR THE DURATION OF STUDY (STUDY DURATION: 66 WK), Route [Inhibitor]: ORAL, Species: MOUSE, Strain/Sex: ICR/MALE, Target Tissue: Type of Lesion: FORESTOMACH: PAPILLOMA, Dose [Carcinogen]: 20 MG IN 0.2 ML CORN OIL 2/WK FOR 5 WK) 26/28 (93%), 20/27 (74%), 19%, not significant. Moreover, the “tumour outcome (control, treated, inhibition, significance)” value is on record as 6/12 (50%), 1/12 (8%), 84%, not calculated (Carcinogen: FIBERGLASS DUST, Dose [Inhibitor]: 50 MG/KG BW IN AQUASOL A PLACEBO, 1/3 D FOR 10 TREATMENTS STARTING 3 D POST CARCINOGEN TREATMENT (STUDY DURATION: 90 D), Route [Inhibitor]: INTRAPERITONEAL, Species: MOUSE, Strain/Sex: STRAIN-A/MALE, Target Tissue: Type of Lesion: LUNG: BRONCHIOGENIC OR SEPTAL CELL TUMOR, Dose [Carcinogen]: 300 MG IN 100 G OF STERILIZED PINE SAWDUST BEDDING CHANGED 1/3 D FOR 30 D STARTING 33 D PRIOR TO START OF AGENT TREATMEN); 15/51 (29%), 3/28 (11%), 62%, p<0.05 (Carcinogen: N-METHYL-N'-NITRO-N-NITROSOGUANIDINE, 70-25-7, Dose [Inhibitor]: 0, 150000 IU/KG DIET FOR 37 WK (STUDY DURATION: 38 WK), Route [Inhibitor]: ORAL, Species: RAT, Strain/Sex: WISTAR/MALE, Target Tissue: Type of Lesion: FORESTOMACH: BENIGN PAPILLOMA, Dose [Carcinogen]: 83 UG/ML IN DISTILLED DRINKING WATER FOR 37 WK); 17/51 (33%), 18/28 (64%), -94%, p<0.05 (Carcinogen: N-METHYL-N'-NITRO-N-NITROSOGUANIDINE, 70-25-7, Dose [Inhibitor]: 0, 150000 IU/KG DIET FOR 37 WK (STUDY DURATION: 38 WK), Route [Inhibitor]: ORAL, Species: RAT, Strain/Sex: WISTAR/MALE, Target Tissue: Type of Lesion: GASTROINTESTINAL TRACT (UPPER): MALIGNANT NEOPLASMS, Dose [Carcinogen]: 83 UG/ML IN DISTILLED DRINKING WATER FOR 37 WK); 3/39 (8%), 4/39 (10%), -25%, not significant (Carcinogen: N-METHYL-N-NITROSOUREA, 684-93-5, Dose [Inhibitor]: 0.03 MMOL 3/WK STARTING 12 D THROUGH ABOUT 8 MO AFTER FIRST CARCINOGEN DOSE (STUDY DURATION: APPROXIMATELY 8 MO), Route [Inhibitor]: INTRARECTAL, Species: RAT, Strain/Sex: F344/MALE, Target Tissue: Type of Lesion: COLON: ADENOCARCINOMA, Dose [Carcinogen]: 2.5 MG 1/WK FOR 2 WK); 11/39 (28%), 24/39 (62%), -121%, p<0.05 (Carcinogen: N-METHYL-N-NITROSOUREA, 684-93-5, Dose [Inhibitor]: 0.03 MMOL 3/WK STARTING 12 D THROUGH ABOUT 8 MO AFTER FIRST CARCINOGEN DOSE (STUDY DURATION: APPROXIMATELY 8 MO), Route [Inhibitor]: INTRARECTAL, Species: RAT, Strain/Sex: F344/MALE, Target Tissue: Type of Lesion: COLON: ADENOMA, Dose [Carcinogen]: 2.5 MG 1/WK FOR 2 WK); 3/39 (8%), 10/38 (26%), -225%, not significant (Carcinogen: N-METHYL-N-NITROSOUREA, 684-93-5, Dose [Inhibitor]: 0.03 MMOL 3/WK STARTING 15 D PRIOR TO THROUGH ABOUT 8 MO AFTER FIRST CARCINOGEN DOSE (STUDY DURATION: APPROXIMATELY 8 MO, Route [Inhibitor]: INTRARECTAL, Species: RAT, Strain/Sex: F344/MALE, Target Tissue: Type of Lesion: COLON: ADENOCARCINOMA, Dose [Carcinogen]: 2.5 MG 1/WK FOR 2 WK). Further, the “tumour outcome (control, treated, inhibition, significance)” value (Carcinogen: N-METHYL-N-NITROSOUREA, 684-93-5, Dose [Inhibitor]: 0.03 MMOL 3/WK STARTING 15 D PRIOR TO THROUGH ABOUT 8 MO AFTER FIRST CARCINOGEN DOSE (STUDY DURATION: APPROXIMATELY 8 MO, Route [Inhibitor]: INTRARECTAL, Species: RAT, Strain/Sex: F344/MALE, Target Tissue: Type of Lesion: COLON: ADENOMA, Dose [Carcinogen]: 2.5 MG 1/WK FOR 2 WK) is recorded as 11/39 (28%), 24/38 (63%), -125%, p<0.05.
